Measured values as given in patent US7211576B2, “Diaminothiazoles” (Hoffmann-La Roche Inc., priority 2004, dated 2007).

How the values were obtained:
[1] = test system: HCT116, a colorectal carcinoma cell line; test: Tetrazolium dye (MTT) proliferation assay; assay type: cell-based; conditions: Homo sapiens, HCT-116; HCT116 cells, inhibition of cell proliferation
Experimental: Proliferation was evaluated by the tetrazolium dye assay according to the procedure of Denizot and Lang (Denizot, F. and Lang, R. J Immunol Methods 1986, 89, 271–277). The cell line used was HCT116, a colorectal carcinoma cell line obtained from the American Type Cell Culture Collection (ATCC; Rockville, Md.). The cells were grown in McCoy's 5A medium supplemented with 10% FCS and L-glutamine.
Cells were plated at the appropriate seeding density to give logarithmic growth over the course of the assay in a 96-well tissue culture plate. Plates were incubated overnight at 37° C. in a humidified incubator with 5% CO2. The next day, test compounds were serially diluted to four times the final concentration in the appropriate medium containing 1.2% DMSO. One-fourth final volume of each dilution was added in duplicate to the plates containing cells. The same volume of 1.2% DMSO in medium was added to a row of “control wells” such that the final concentration of DMSO in each well was 0.3%. Wells to which no cells were added served as the “blank.” Wells to which no inhibitor was added served as “no inhibitor control.” The plates were) returned to the incubator, and at set time points (determined by their growth curves) plates were analyzed as described below.
3-(4,5-dimethylthiazole-2-yl)-2,5-diphenyl-2H-tetrazolium bromide (thiazolyl blue; MTT; Sigma) was added to each well to yield a final concentration of 1 mg/ml. Plates were returned to the incubator for 2.5–3 hours at 37° C. The MTT-containing medium was removed and the resulting formazan metabolite was solubilized in 100% ethanol with shaking for 15 minutes at room temperature. Absorbance readings were taken in a microtiter plate reader (Dynatech and Molecular Devices plate readers were used interchangeably) at a wavelength of 570 nm with a 650 nm reference. Percent inhibition (% INH) is calculated by subtracting the absorbance of the blank well from all wells, then subtracting the ratio of the average absorbance of each test duplicate (SAVE) by the average of the controls (CAVE) from 1.00. The final number is then multiplied by 100 (% INH=(1.00−SAVE/CAVE)×100). The concentration at which 50% inhibition of cell proliferation is obtained (the IC50) is determined from the linear regression of a plot of the logarithm of the concentration versus percent inhibition.

human cyclin B-CDK1 = human cyclin B-CDK1 (Homo sapiens, UniProt P06493); test: FlashPlate kinase assay, cyclin B-CDK1; assay type: biochemical; conditions: Rb protein substrate, 1 μM ATP, 33P-ATP, 30 minutes room temperature
human cyclin E-CDK2 = human cyclin E-CDK2 (Homo sapiens, UniProt P24941); test: FlashPlate kinase assay, cyclin E-CDK2; assay type: biochemical; conditions: Rb protein substrate, 1 μM ATP, 33P-ATP, 30 minutes room temperature
Experimental: To determine inhibition of Cdk4, Cdk2 and Cdk1 activity, kinase assays were conducted using FlashPlate™ assays (NEN™-Life Science Products). FlashPlate assays were performed using recombinant human cyclin B-CDK1, human cyclin E-CDK2 or human cyclin D1-CDK4 complexes. GST-cyclinE (GST-cycE), CDK2, GST-cyclinB (GST-cycB), CDK1, GST-CDK4 and cyclin D1 (cycD1) cDNA clones in baculovirus vectors were provided by Dr. W. Harper at the Baylor College of Medicine, Houston, Tex. Proteins were co-expressed in High Five™ insect cells and the complex was purified on glutathione Sepharose resin (Pharmacia, Piscataway, N.J.) as previously described (Harper, J. W. et al. Cell 1993, 75, 805–816). A 6×-Histidine tagged truncated form of retinoblastoma (Rb) protein (amino acid 386–928) was used as the substrate for the cycD1-CDK4, cycB-CDK1 and the cycE-CDK2 assays (the expression plasmid was provided by Dr. Veronica Sullivan, Department of Molecular Virology, Roche Research Centre, Welwyn Garden City, United Kingdom). The Rb protein is a natural substrate for phosphorylation by CDK4, CDK2 and CDK1 (see Herwig and Strauss Eur. J. Biochem. Vol. 246 (1997) pp. 581–601 and the references cited therein).
The expression of the 62Kd protein was under the control of an IPTG inducible promoter in an M15 E. coli strain. Cells were lysed by sonication and purification was carried out by binding lysates at pH 8.0 to a Ni-chelated agarose column pretreated with 1 mM imidazole. The resin was then washed several times with incrementally decreasing pH buffers to pH 6.0, and eluted with 500 mM imidazole. Eluted protein was dialysed against 20 mM HEPES pH 7.5, 30% glycerol, 200 mM NaCl, and 1 mM DTT. Purified Rb fusion protein stocks were quantitated for protein concentration, aliquoted, and stored at −70° C.
For all three kinase assays reported herein, 96-well FlashPlates were coated with Rb protein at 10 μg/ml, using 100 μl per well. Plates were incubated at 4° C. overnight or at room temperature for 3 hours on a shaker. To control for nonspecific phosphorylation, one row of wells was coated with 100 μl/well coating buffer (20 mM HEPES, 0.2 M NaCl). Plates were then washed twice with wash buffer (0.01% Tween 20 in phosphate-buffered saline). Compounds to be tested (“test compounds”) were added to the wells at 5× final concentration. Reactions were initiated by immediate addition of 40 μl reaction mix (25 mM HEPES, 20 mM MgCl2, 0.002% Tween 20, 2 mM DTT, 1 μM ATP, 4 nM ^33P-ATP) and a sufficient amount of enzyme to give counts that were at least 10-fold above background. Plates were incubated at room temperature on a shaker for 30 minutes. Plates were washed four times with the wash buffer, sealed, and counted on the TopCount scintillation counter (Packard Instrument Co., Downers Grove, Ill.]. The percent inhibition of Rb phosphorylation, which is a measure of the inhibition of CDK activity, was determined according to the following formula:
[formula] where “test compound” refers to the average counts per minute of the test duplicates, “nonspecific” refers to the average counts per minute when no CyclinD/Cdk4, etc., was added, and “total” refers to the average counts per minute when no compound was added. The IC50 value is the concentration of test compound that reduces by 50% the protein-kinase induced incorporation of the radiolabel under the test conditions described.

human cyclin D1-CDK4 = human cyclin D1-CDK4 (Homo sapiens, UniProt P11802); test: FlashPlate kinase assay, cyclin D1-CDK4; assay type: biochemical; conditions: Rb protein substrate, 1 μM ATP, 33P-ATP, 30 minutes room temperature; read-out: CDK4 IC50
human cyclin D1-CDK4, sequence (P11802 whole entry): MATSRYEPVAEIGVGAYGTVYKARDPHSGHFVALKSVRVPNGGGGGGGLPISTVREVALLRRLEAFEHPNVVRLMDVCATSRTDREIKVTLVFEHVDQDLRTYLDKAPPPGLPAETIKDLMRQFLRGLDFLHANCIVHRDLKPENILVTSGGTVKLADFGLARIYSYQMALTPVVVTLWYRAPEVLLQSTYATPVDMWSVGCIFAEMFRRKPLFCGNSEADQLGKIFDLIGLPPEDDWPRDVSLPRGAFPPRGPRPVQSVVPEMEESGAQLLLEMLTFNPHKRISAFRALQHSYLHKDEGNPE
human cyclin D1-CDK4, sequence (P24385 whole entry partner): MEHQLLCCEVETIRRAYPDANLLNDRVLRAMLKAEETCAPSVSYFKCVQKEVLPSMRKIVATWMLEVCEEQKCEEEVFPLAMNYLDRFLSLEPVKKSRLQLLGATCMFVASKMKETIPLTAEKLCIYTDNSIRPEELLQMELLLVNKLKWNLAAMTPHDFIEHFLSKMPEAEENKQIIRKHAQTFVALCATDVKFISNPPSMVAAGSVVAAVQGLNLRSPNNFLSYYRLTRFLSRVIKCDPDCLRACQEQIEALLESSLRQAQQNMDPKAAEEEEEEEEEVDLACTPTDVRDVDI

human cyclin B-CDK1, sequence (P06493 whole entry): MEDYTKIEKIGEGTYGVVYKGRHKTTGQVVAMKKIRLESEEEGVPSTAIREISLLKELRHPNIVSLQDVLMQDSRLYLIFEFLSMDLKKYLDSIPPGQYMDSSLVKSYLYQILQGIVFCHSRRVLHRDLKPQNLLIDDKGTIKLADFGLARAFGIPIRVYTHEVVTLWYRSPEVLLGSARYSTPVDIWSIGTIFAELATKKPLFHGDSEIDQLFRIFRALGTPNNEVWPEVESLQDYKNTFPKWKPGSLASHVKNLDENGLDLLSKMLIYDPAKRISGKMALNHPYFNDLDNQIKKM
human cyclin B-CDK1, sequence (P14635 whole entry partner): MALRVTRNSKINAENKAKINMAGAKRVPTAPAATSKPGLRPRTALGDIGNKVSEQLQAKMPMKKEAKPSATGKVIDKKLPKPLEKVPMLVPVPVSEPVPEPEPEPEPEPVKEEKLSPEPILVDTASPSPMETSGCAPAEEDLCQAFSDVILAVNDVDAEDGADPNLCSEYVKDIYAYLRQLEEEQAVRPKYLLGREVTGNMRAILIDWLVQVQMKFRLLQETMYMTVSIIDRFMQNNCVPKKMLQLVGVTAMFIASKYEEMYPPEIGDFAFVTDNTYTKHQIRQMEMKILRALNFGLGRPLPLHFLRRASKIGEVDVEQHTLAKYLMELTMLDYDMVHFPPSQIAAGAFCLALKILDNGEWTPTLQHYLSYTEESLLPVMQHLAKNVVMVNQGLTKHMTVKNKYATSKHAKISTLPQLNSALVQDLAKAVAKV

Structure (SMILES)	IC50 [1]	IC50 (human cyclin B-CDK1)	IC50 (human cyclin E-CDK2)	IC50 (human cyclin D1-CDK4)
COc1ccc(C(=O)c2sc(Nc3ccc(N4CCC(N5CCCCC5)CC4)cc3)nc2N)cc1[N+](=O)[O-] [Example 108, [4-Amino-2-(4-[1,4′]bipiperidinyl-1′-yl-phenylamino)-thiazol-5-yl]-(4-methoxy-3-nitro-phenyl)-methanone]	996 nM	1290 nM	2610 nM	34 nM
Cc1ccc(C(=O)c2sc(Nc3ccc(N4CCC(N5CCCC5)CC4)cc3)nc2N)cc1F [Example 121, {4-Amino-2-[4-(4-pyrrolidin-1-yl-piperidin-1-yl)-phenylamino]-thiazol-5-yl}-(3-fluoro-4-methyl-phenyl)-methanone]	2160 nM	700 nM	1940 nM	11 nM
COc1ccc(C(=O)c2sc(Nc3ccc(N4CCC(N5CCCC(O)C5)CC4)cc3)nc2N)cc1F (stereo not shown) [Example 36, {4-Amino-2-[4-(3-hydroxy-[1,4′]bipiperidinyl-1′-yl)-phenylamino]-thiazol-5-yl}-(3-fluoro-4-methoxy-phenyl)-methanone]	9 nM	1730 nM	3000 nM	3630 nM
Nc1nc(Nc2ccc(N3CCC(N4CCCC(O)C4)CC3)cc2)sc1C(=O)c1ccc2c(c1)OCO2 (stereo not shown) [Example 37, {4-Amino-2-[4-(3-hydroxy-[1,4′]bipiperidinyl-1′-yl)-phenylamino]-thiazol-5-yl}-benzo[1,3]dioxol-5-yl-methanone]	100 nM	1630 nM	520 nM	3520 nM
Nc1nc(Nc2ccc(N3CCC(N4CCCC(O)C4)CC3)cc2)sc1C(=O)c1ccc(O)cc1 (stereo not shown) [Example 40, {4-Amino-2-[4-(3-hydroxy-[1,4′]bipiperidinyl-1′-yl)-phenylamino]-thiazol-5-yl}-(4-hydroxy-phenyl)-methanone]	9480 nM	640 nM	5110 nM	52 nM
CN(C)C1CCN(c2ccc(Nc3nc(N)c(C(=O)c4cccc(F)c4)s3)cc2)CC1 [Example 41, {4-Amino-2-[4-(4-dimethylamino-piperidin-1-yl)-phenylamino]-thiazol-5-yl}-(3-fluoro-phenyl)-methanone]	1410 nM	268 nM	888 nM	2 nM
COc1cccc(C(=O)c2sc(Nc3ccc(N4CCC(N5CCCC5)CC4)cc3)nc2N)c1 [Example 27]	1850 nM	1060 nM	3490 nM	17 nM
COc1cccc(C(=O)c2sc(Nc3ccc(N4CCC(N5CCCCC5)CC4)cc3)nc2N)c1 [Example 34, [4-Amino-2-(4-[1,4′]bipiperidinyl-1′-yl-phenylamino)-thiazol-5-yl]-(3-methoxy-phenyl)-methanone]	8 nM	1680 nM	952 nM	3640 nM
Nc1nc(Nc2ccc(N3CCC(N4CCCC4)CC3)cc2)sc1C(=O)c1cccc(F)c1 [Example 24, {4-Amino-2-[4-(4-pyrrolidin-1-yl-piperidin-1-yl)-phenylamino]-thiazol-5-yl}-(3-fluoro-phenyl)-methanone]	1220 nM	270 nM	860 nM	32 nM
N#Cc1cccc(C(=O)c2sc(Nc3ccc(N4CCC(N5CCCC(O)C5)CC4)cc3)nc2N)c1 (stereo not shown) [Example 80, 3-{4-Amino-2-[4-(3-hydroxy-[1,4′]bipiperidinyl-1′-yl)-phenylamino]-thiazole-5-carbonyl}-benzonitrile]	3490 nM	1370 nM	2580 nM	17 nM
CCNC1CCN(c2ccc(Nc3nc(N)c(C(=O)c4ccc(OC)c(F)c4)s3)cc2)CC1 [Example 136, {4-Amino-2-[4-(4-ethylamino-piperidin-1-yl)-phenylamino]-thiazol-5-yl}-(3-fluoro-4-methoxy-phenyl)-methanone]	3260 nM	1560 nM	9430 nM	50 nM
Nc1nc(Nc2ccc(N3CCC(N4CCCC4)CC3)cc2)sc1C(=O)c1cccc(C2CC2)c1 [Example 119, {4-Amino-2-[4-(4-pyrrolidin-1-yl-piperidin-1-yl)-phenylamino]-thiazol-5-yl}-(3-cyclopropyl-phenyl)-methanone]	3170 nM	1530 nM	3240 nM	11 nM
COc1ccc(C(=O)c2sc(Nc3ccc(N4CCC(N5CCCCC5)CC4)cc3)nc2N)cc1F [Example 31, [4-Amino-2-(4-[1,4′]bipiperidinyl-1′-yl-phenylamino)-thiazol-5-yl]-(3-fluoro-4-methoxy-phenyl)-methanone]	3290 nM	1720 nM	4160 nM	28 nM
CCNC1CCN(c2ccc(Nc3nc(N)c(C(=O)c4cccc(OC)c4)s3)cc2)C1 (stereo not shown) [Example 134, {4-Amino-2-[4-(3-ethylamino-pyrrolidin-1-yl)-phenylamino]-thiazol-5-yl}-(3-methoxy-phenyl)-methanone]	1240 nM	1330 nM	4500 nM	46 nM
Nc1nc(Nc2ccc(N3CCC(N4CCCC4)CC3)cc2)sc1C(=O)c1ccc2c(c1)OCCO2 [Example 26, {4-Amino-2-[4-(4-pyrrolidin-1-yl-piperidin-1-yl)-phenylamino]-thiazol-5-yl}-(2,3-dihydro-benzo[1,4]dioxin-6-yl)-methanone]	2800 nM	1060 nM	4250 nM	5 nM
CN(C)C1CCN(c2ccc(Nc3nc(N)c(C(=O)c4ccc5c(c4)OCCO5)s3)cc2)CC1 [Example 44, {4-Amino-2-[4-(4-dimethylamino-piperidin-1-yl)-phenylamino]-thiazol-5-yl}-(2,3-dihydro-benzo[1,4]dioxin-6-yl)-methanone]	1720 nM	1250 nM	5130 nM	16 nM
